From US20170368181A1, “Polymeric Nanoparticle” (The Provost Fellows and Scholars of the College of the Holy …, priority 2010, published 2017)

What was measured:
NR4A2 mRNA = assay: PGE2-induced NR4A2 mRNA in SW1353 cells, qRT-PCR; format: cell-based, human; details: PGE2 1 μM, 1 hour
Description: (§1) Cell assay: SW1353 human chondrocytes (ATCC) were maintained in RPMI 1640 medium supplemented with 10% Foetal Calf Serum, L-Glutamine and 1% antibiotics. SW1353 cells were seeded 2.5×10^5 cells per well into 6-well plates. After 24 hours media was replaced with serum free media (SFM) and incubated over night. sCT (10 μM) with either PGE2(1 μM) or IL-1β (10 ng/ml) were added to cells in SFM for 1 hour. Dexamethasone (Dex, 10 μM) was the positive control for the down-regulation of NR4A2. Untreated controls were treated in an identical manner, but with serum-free medium alone. RNA was isolated from SW1353 cells.
RNA Extraction: Media was removed from the cells and 1 mL of TRIzol® (Invitrogen) was added to each well. Cells were homogenised by pipetting the added TRIzol® up and down for 8-10 times. […] Pellet was then resuspended in an appropriate volume of RNASE/DNASE free water and RNA in each sample was quantified at A260. […]
Mix to be added to each reaction tube is 4 μL of 5× 1st Strand Buffer, 2 μL of 0.1 M DTT, 1 μL of RNase Out and 1 μL MMLV. […] NR4A and MMP1, 3, 9 and 13 levels were measured by qRT-PCR and expression levels were normalized to GAPDH levels.
SW1353 cells were treated with sCT alone or polymeric nanoparticles comprising hyaluronic acid, chitosan, and sCT and PGE2 for 1 hour. Total RNA was extracted and assayed for NR4A2 mRNA levels by quantitative RT-PCR. […]

MMP 13 = assay: IL-1β-induced MMP 13 mRNA in SW1353 cells, qRT-PCR; format: cell-based, human
Description: as §1
Mix to be added to each reaction tube is 4 μL of 5× 1st Strand Buffer, 2 μL of 0.1 M DTT, 1 μL of RNase Out and 1 μL MMLV. Taq Cat# 10342-020 (this contains 0.1 M DTT, 5× 1st S. B.). NR4A and MMP1, 3, 9 and 13 levels were measured by qRT-PCR and expression levels were normalized to GAPDH levels.
Effects of sCT and the nanoparticle on MMP mRNA levels were also investigated. […] Both sCT, HA, and the polymeric nanoparticle down regulated MMP 13 by 47%, 31% and 88% (FIG. 6B). MMPs 1 and 3 were also down regulated. […] Dexamethasone, which is known to down regulate NR4A2 and is used for the treatment of rheumatoid arthritis, was used as a positive control in all experiments. […]

NR4A2 = NR4A2 expression in ankle joints of K/BxN sera-induced mice; format: in vivo, mouse; details: intra-peritoneal delivery
Excerpt: On day 4 after K/BxN serum transfer, mice were sacrificed, and their hind paws above the knee joint were harvested for histology to assess the effects of drug treatments on inflammation and bone and cartilage degradation. The histology sections were stained with hematoxylin and eosin (H&E) and Saffarin O and scored blindly under 3 different categories (i) inflammation (synovitis infiltration and pannus formation), (ii) cartilage erosion and (iii) bone erosion. RNA was also isolated from both the ankle joint and knee joint tissue to measure expression of NR4A biomarkers.
RNA was isolated from the ankle joints of control and ‘inflamed’ K/BxN mice to measure expression of NR4A biomarkers. In K/BxN sera-induced mice with no treatment (therefore showing inflammation), high levels of NR4A1, NR4A2 and NR4A3 were over expressed, compared to naïve mice with no serum transfer (no inflammation (FIG. 20).
Expression of NR4A2 was measured in all groups (FIG. 21). […] Histological sections of the knee joint were scored by an observer blinded to the treatment under 3 different criteria (i) inflammation (synovitis infiltration and pannus formation), (ii) cartilage erosion and (iii) bone erosion on a scale of 0-3 (0, none; 1, minimal invasion of meniscus; 2, partial invasion of meniscus; 3, severe invasion of meniscus). […]

[1] = 20° C.; cited from earlier work

## salmon calcitonin [sCT]
NR4A2 mRNA
  inhibition of PGE2 induced NR4A2 transcript levels: 49%
MMP 13
  down regulation of MMP 13 mRNA: 47%
NR4A2
  NR4A2 expression in the ankle joints: reduce NR4A2 expression
[1]
  water solubility: about 1 mg/ml
